Measurements as given in paper PMC3666979, “Eliciting Renal Failure in Mosquitoes with a Small-Molecule Inhibitor of Inward-Rectifying Potassium Channels” (PLoS ONE, 2013).
Marks after values point to notes of the source that are not given here.

How the values were obtained:
[1] = molecular target: T1, AeKir1 (Aedes aegypti, UniProt L0EQS9); test: Whole-cell patch clamp of AeKir1 expressed in T-REx-HEK-293 cells; format: cell-based; conditions: for IC50: AeKir1-mediated currents, T-REx-HEK-293 cells
Description: T-REx-HEK293-AeKir1 cells were voltage clamped in the whole-cell configuration of the patch clamp technique after overnight induction with tetracycline (1 µg/ml). Patch electrodes were pulled from silanized 1.5 mm outer diameter borosilicate microhematocrit tubes using a Narishige PP-830 two-stage puller. Electrode resistance ranged from 2.5 to 3.5 MΩ when filled with the following intracellular solution (in mM): 135 KCl, 2 MgCl2, 1 EGTA, 10 HEPES free acid, 2 Na2ATP (Roche, Indianapolis, IN), pH 7.3, 275 mOsm. The standard bath solution contained (in mM): 135 NaCl, 5 KCl, 2 CaCl2, 1 MgCl2, 5 glucose, 10 HEPES free acid, pH 7.4, 290 mOsm. The high-K^+ bath contained (in mM): 90 NaCl, 50 KCl, 2 CaCl2, 1 MgCl2, 5 glucose, and 10 HEPES-free acid, pH 7.4, 290 mOsmol. Whole-cell currents were recorded under voltage-clamp conditions using an Axopatch 200B amplifier (Molecular Devices, Sunnyvale, CA). Electrical connections to the amplifier were made using Ag/AgCl wires and 3 M KCl/agar bridges. Electrophysiological data were collected at 5 kHz and filtered at 1 kHz. Data acquisition and analysis were performed using pClamp 9.2 software (Axon Instruments). After achieving stable whole-cell currents, VU573 or VU342 was applied intermittently or continuously for 2 to 10 min, followed by application of 2 mM BaCl2. All recordings were made at room temperature (20–23°C).

[2] = system: principal cells of isolated Malpighian tubules; test: Two-electrode voltage clamp of principal cells in isolated Malpighian tubules; format: cell-based, Aedes aegypti; conditions: for Rpc (kΩ) / Vbl (mV): VU573 10 µM or barium 5 mM, means ± SEM
Description: The basolateral membrane voltage (Vbl) and input resistance (Rpc) of principal cells were measured in isolated Malpighian tubules using two-electrode voltage clamping, as described previously. In each experiment, a single principal cell near the distal (blind) end of the tubule was impaled with two glass microelectrodes: one measured Vbl and the other injected current (Im). The Rpc of the impaled cell was calculated from current-voltage plots that were generated via voltage clamping (see ref. [25] for details). After recording a steady-state Vbl and Rpc (control) from the impaled cell, either VU573 (10 µM) or BaCl2 (5 mM) was added to the peritubular bath. The resulting Vbl and Rpc (treatment) were measured again upon reaching a new steady-state (usually 1–2 min later).
(§1) Data were analyzed using Prism 5 for Windows (Graphpad Software) and Excel (Microsoft Corp). To compare the rates of fluid secretion among control, vehicle, VU573, and VU342 treatments, a one-way ANOVA was performed with a Newman-Keuls posttest. To compare the Vbl and Rpc values of principal cells between control and treatment periods a paired t-test was performed.

[3] = system: adult female mosquitoes (Aedes aegypti); test: Mosquito toxicology: incapacitation 24 h after intrathoracic injection (69 nl); format: in vivo; conditions: for mosquitoes bloated (retained fluid) / % Incapacitated (flightless or dead): 69 nl of 10 mM in PBS/15% DMSO; for mosquitoes bloated (retained fluid): 24 h; for % Incapacitated (flightless or dead): within 24 hours
Description: (§2) Mosquitoes were first anesthetized on ice and then injected with 69 nl of fluid (see below) using a pulled-glass capillary attached to a nanoliter injector (Nanoject II, Drummond Scientific Company, Broomall, PA). The injected fluid was a sodium-based phosphate-buffered saline (Na^+-PBS) containing 15% DMSO and various concentrations of VU573 or VU342 to deliver the doses indicated in Figures 2A, 2C, and S3. The Na^+-PBS consisted of the following in mM: 137 NaCl, 2.7 KCl, 10 Na2HPO4, and 2 KH2PO4 (pH 7.5). After injection, the mosquitoes were placed in a small cage (10 females per cage) within a rearing chamber (28°C, 80% relative humidity, 12∶12 light∶dark) and allowed free access to a solution of 10% sucrose. The mosquitoes were observed 24 h after injection.
(§3) Data were analyzed using Prism 5 for Windows (Graphpad Software). To generate a dose-response curve for VU573, the doses (x-axis) were log transformed and then a non-linear curve was fitted to the data using the ‘log(agonist) vs. response’ algorithm. An ED50 was calculated from this curve. To compare 1) the incapacitating effects among the vehicle, VU573, and VU342 treatments, and 2) the rates of urine excretion among the control, vehicle, VU573, and VU342 treatments, one-way ANOVAs were performed with Newman-Keuls posttests. To compare the incapacitating effects between the vehicle and VU573 within each mosquito species, a paired t-test was used.

[4] = system: isolated Malpighian tubules; test: Fluid secretion by isolated Malpighian tubules (Ramsay method); set-up: species or system Aedes aegypti; conditions: 10 µM in peritubular bath, after 2 hours, high-potassium Ringer
Description: Fluid secretion rates from isolated Malpighian tubules (Ae. aegypti) were measured in vitro using the method described in [25], which is modified from that of Ramsay. In brief, isolated tubules were bathed in a 50 µl drop of a mosquito Ringer solution with elevated K^+ (see composition below), which was then covered with light mineral oil. A glass hook was used to pull the open proximal end of the tubule into the mineral oil where fluid was secreted. The diameter of the droplet was measured to calculate the secreted volumes.
In one set of tubules, the initial spontaneous rate of fluid secretion was calculated during the first 30 min (control). In another set of tubules, the rates of fluid secretion were determined 2 h after adding one of the following to the peritubular bath: the vehicle (0.05% DMSO), VU573 (10 µM), or VU342 (10 µM). The Ringer solution consisted of the following in mM: 119.4 NaCl, 34 KCl, 25 HEPES, 1.8 NaHCO3, 1.7 CaCl2, and 1.0 MgSO4, pH 7.1.
as §1

[5] = system: intact mosquitoes (Ae. aegypti); test: Urine excretion rate of intact mosquitoes after 900 nl HBS injection; format: in vivo, Aedes aegypti; conditions: 2 h
Description: Urine excretion rates from intact mosquitoes (Ae. aegypti) were measured using a method modified from the laboratory of Hansen. After anesthetizing mosquitoes on ice they were injected as described above with 900 nl of fluid (100 nl/s). The injected fluid was one of two HEPES-buffered saline (HBS) solutions containing 1.8% DMSO with 0.77 mM VU573 or 0.77 mM VU342. Vehicle controls received the respective HBS with DMSO alone. The Na^+-HBS consisted of the following in mM: 146 NaCl, 4.2 N-methyl-D-glucammonium (NMDG)-Cl, and 25 mM HEPES (pH 7.5). The K^+-HBS consisted of the following in mM: 10 mM NaCl, 75 mM KCl, 65.2 mM NMDG-Cl, and 25 mM HEPES (pH 7.5). After injection, mosquitoes were placed immediately in a graduated, packed-cell volume tube (MidSci, St. Louis, MO; 3 mosquitoes per tube) at room temperature. The mosquitoes were removed from the tubes with forceps after 2 h and the excreted urine was centrifuged into the graduated column of the tube for measurement. Uninjected control mosquitoes were handled exactly as above without the injection step. Data were analyzed using Prism 5 for Windows (Graphpad Software). To generate a dose-response curve for VU573, the doses (x-axis) were log transformed and then a non-linear curve was fitted to the data using the ‘log(agonist) vs. response’ algorithm. An ED50 was calculated from this curve. To compare 1) the incapacitating effects among the vehicle, VU573, and VU342 treatments, and 2) the rates of urine excretion among the control, vehicle, VU573, and VU342 treatments, one-way ANOVAs were performed with Newman-Keuls posttests. To compare the incapacitating effects between the vehicle and VU573 within each mosquito species, a paired t-test was used.

[6] = molecular target: T1, AeKir1; test: Thallium (Tl+) flux assay of AeKir1 in T-REx-HEK-293 cells; format: cell-based; conditions: AeKir1-mediated Tl+ flux, means ± SEM
Description: Compound master antagonist plates were created by serial diluting compounds 1∶3 from 30 mM stocks in 100% DMSO using the BRAVO liquid handler (Agilent Technologies, Santa Clara, CA). Assay daughter plates were created using the ECHO 555 liquid hander (Labcyte, Sunnyvale, CA), transferring 240 nl from the master plate to the daughter plate for each well followed by addition of 40 µl of assay buffer resulting in antagonist compound concentration response curves starting at 200 µM (2× final concentration). […] Cell plates and daughter compound plates were loaded onto a kinetic imaging plate reader (FDSS 6000; Hamamatsu Corporation, Bridgewater, NJ). […] Appropriate baseline readings were taken (10 images at 1 Hz; excitation, 470±20 nm; emission, 540±30 nm) and 20 µl test compounds were added followed by 50 images at 1 Hz additional baseline. Following a 20 minute incubation period, baseline readings were taken for 10 seconds followed by addition of 10 µl of Tl^+ stimulus buffer. […] Data were analyzed using Excel (Microsoft Corp, Redmond, WA). […] The slope of the fluorescence increase beginning 5 s after Tl^+ addition and ending 15 s after Tl^+ addition was calculated. […] Potencies were calculated from fits using a four parameter logistic equation.

[7] = system: adult female Aedes albopictus; test: Mosquito toxicology: incapacitation 24 h after injection (69 nl); format: in vivo; conditions: 69 nl Na+-PBS with 10 mM
Description: as §2, §3
(§4) Supplementary file pone.0064905.s003.tif: Figure S3 Incapacitating effects of VU573 in three species of mosquitoes. Adult female mosquitoes were injected with Na^+- PBS (69 nl) containing the vehicle (15% DMSO) or VU573 (10 mM). ‘% Incapacitated’ refers to the proportion of mosquitoes that are flightless or dead within 24 h after injection. Values are means ± SEM (n = 4 independent trials of 10 mosquitoes). Statistical differences between vehicle and VU573-treated mosquitoes were determined by a paired t-test for each species. […]

[8] = system: adult female Anopheles gambiae; test: as above; format: in vivo; conditions: 69 nl Na+-PBS with 10 mM
Description: as §2, §3, §4

[9] = system: adult female Culex pipiens; test: as above; format: in vivo; conditions: 69 nl Na+-PBS with 10 mM
Description: as §2, §3, §4

[10] = system: adult female mosquitoes (Ae. aegypti); test: Mosquito mortality after 900 nl Na+- or K+-PBS injection; format: in vivo, Aedes aegypti
Description: A similar approach was used to determine the toxicity of VU573 after a stress to hemolymph Na^+ or K^+ homeostasis (Figure 2F). However, in these experiments each mosquito was injected with 900 nl of fluid (100 nl/s) and the mosquitoes were not given access to sucrose. The injected fluid was a Na^+-PBS or K^+-PBS containing 1.1% DMSO and 0.77 mM of VU573. Vehicle controls received the respective PBS with DMSO alone. The K^+-PBS consisted of the following in mM: 2.7 NaCl, 137 KCl, 2 Na2HPO4, and 10 KH2PO4 (pH 7.5).

[11] = 900 nl K+-HBS containing 0.77 mM compound
[12] = 900 nl Na+-HBS containing 0.77 mM compound
[13] = dose-response experiment, 24 h after injection
[14] = 10 µM peritubular, change vs control

T1 sequence (L0EQS9 entry or part of it): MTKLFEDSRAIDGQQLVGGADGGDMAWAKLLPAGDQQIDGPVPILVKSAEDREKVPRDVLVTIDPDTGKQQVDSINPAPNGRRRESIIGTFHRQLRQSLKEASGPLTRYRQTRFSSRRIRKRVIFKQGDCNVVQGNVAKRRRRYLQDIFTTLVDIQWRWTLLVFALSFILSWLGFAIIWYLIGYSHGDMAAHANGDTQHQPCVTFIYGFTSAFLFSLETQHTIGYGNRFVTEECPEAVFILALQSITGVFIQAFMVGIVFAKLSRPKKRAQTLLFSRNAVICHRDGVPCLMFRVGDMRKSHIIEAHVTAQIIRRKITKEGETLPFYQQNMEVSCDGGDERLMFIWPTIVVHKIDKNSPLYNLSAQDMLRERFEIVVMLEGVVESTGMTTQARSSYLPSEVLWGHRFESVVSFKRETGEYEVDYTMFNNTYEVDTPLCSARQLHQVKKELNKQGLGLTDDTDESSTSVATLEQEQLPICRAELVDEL

| Structure (SMILES) | IC50 [1] | Rpc (kΩ) [2] | Vbl (mV) [2] | mosquitoes bloated (retained fluid) [3] | % Incapacitated (flightless or dead) [3] | rate of fluid secretion [4] | rate of urine excretion [5, 11] | rate of urine excretion [5, 12] | further results |
| --- | --- | --- | --- | --- | --- | --- | --- | --- | --- |
| [Ba+2].[Cl-].[Cl-] [Barium, BaCl2, reference compound] | 10 µM | 322.8±31.0 ^d kΩ | −59.3±3.3 ^c mV |  |  |  |  |  |  |
| N=c1n(Cc2ccccc2)c2ccccc2n1CC(O)CN1CCOCC1 (centres unmarked) [VU342] | 112 ± 1.1 µM |  |  | none | less than 20% | no effect on the rate of fluid secretion | unaffected | 5.7 nL/min | times less potent than VU573 at inhibiting AeKir1 ([1]; ratio of IC50): 22 times; maximal inhibition of AeKir1 ([1]; requires 300 µM): ~65% |
| Cc1ccc(OCC(O)Cn2c(=N)n(Cc3ccccc3)c3ccccc32)cc1 (centres unmarked) [VU573] | 5.14 ± 1.2 µM | 255.3±15.4 ^a kΩ | −52.4±4.5 ^b mV | 10% | ~100% | 0.26 nL/min | 0.73 nL/min | 2.14 nL/min | IC50 [6]: 15 µM; proportion of incapacitated mosquitoes that were dead [3, 13]: 7.7%; proportion of incapacitated mosquitoes that were flightless [3, 13]: 92.3%; proportion of incapacitated mosquitoes with greatly distended abdomens (bloated) [3, 13]: 3.6%; ED50 (incapacitated: flightless or dead) ([3]; within 24 h after injection of 69 nl PBS/15% DMSO into hemolymph): 53.6 pmol; incapacitating effect [7]: incapacitates these mosquitoes; incapacitating effect [8]: incapacitates these mosquitoes; incapacitating effect [9]: incapacitates these mosquitoes; hyperpolarization of basolateral membrane voltage (Vbl) [2, 14]: 7.0 mV; increase of input resistance (Rpc) [2, 14]: 5.7 kΩ; mortality compared to vehicle ([10]; 900 nl K+-PBS with 0.77 mM): significantly increases mortality; mortality compared to vehicle ([10]; 900 nl Na+-PBS with 0.77 mM): does not significantly increase mortality; flightlessness ([10]; 900 nl Na+-PBS with 0.77 mM, within 24 hours): renders them flightless |
